The record followed here is PubChem BioAssay (NCI).

The structures appear in SMILES notation.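 Step 1: Grow cells in 96-well plates. Step 2: Expose to compound for 48 hours at 5 concentrations. Step 3: Interpolate endpoints linearly; if unreached, use highest concentration. GI50: concentration for 50% inhibition of growth. The concentration for full growth arrest is given as TGI.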

Among the test systems are COLO 205 colon; HS 578T breast; SK-OV-3 ovarian; SW-620 colon; IGROV1 ovarian; OVCAR-8 ovarian; OVCAR-5 ovarian; MDA-MB-231 breast; U251 CNS; HCT-116 colon.
Test in all cases: NCI anticancer screen, dose series, 48 h

`C[C@@H](Oc1cc(-c2cnn(C3CCNCC3)c2)cnc1N)c1c(Cl)cc(F)cc1Cl`: the GI50 with COLO 205 colon is 0.857 µM; with HS 578T breast it was 2.41 µM; with SK-OV-3 ovarian, 3.26 µM; with SW-620 colon, 0.893 µM; in the assay with IGROV1 ovarian, 3.31 µM; in the assay with OVCAR-8 ovarian, 3.83 µM. For the same compound, the GI50 was 2 µM in the assay with OVCAR-5 ovarian, 1.61 µM in the assay with MDA-MB-231 breast, 1.93 µM with U251 CNS and 1.12 µM with HCT-116 colon. For the same compound, the TGI amounted to 2.45 µM with COLO 205 colon; 10.1 µM in the assay on HS 578T breast; 10.8 µM with SK-OV-3 ovarian; 8.13 µM in the assay with SW-620 colon; 16.7 µM in the assay on IGROV1 ovarian; 16.3 µM in the assay on OVCAR-8 ovarian. Besides, the TGI in the assay on OVCAR-5 ovarian was 10.1 µM; with MDA-MB-231 breast it was 5.22 µM; in the assay with U251 CNS, 7.65 µM; with HCT-116 colon, 5.16 µM.
Regarding `CC(=O)/C=C/c1ccc(N(CCO)Cc2ccc(C(C)(C)C)cc2)cc1`, the GI50 in the assay on COLO 205 colon is 29.3 µM; with HS 578T breast it was 80 µM; in the assay on SK-OV-3 ovarian, 121 µM; with SW-620 colon it was 119 µM; with IGROV1 ovarian, 112 µM; with OVCAR-8 ovarian it was 62.9 µM. Further, the GI50 in the assay with OVCAR-5 ovarian was 63.3 µM; in the assay on MDA-MB-231 breast, 87.9 µM; with U251 CNS, 66.1 µM; in the assay with HCT-116 colon it was 30 µM. Also, the TGI in the assay with COLO 205 colon is 129 µM; in the assay with HS 578T breast, 297 µM; with SK-OV-3 ovarian, 248 µM; with SW-620 colon, 259 µM; with IGROV1 ovarian it was 260 µM; with OVCAR-8 ovarian, 210 µM. The TGI in the assay with OVCAR-5 ovarian is 211 µM; with MDA-MB-231 breast, 225 µM; in the assay with U251 CNS it was 194 µM; with HCT-116 colon, 125 µM.
Regarding `CCC(=C(c1ccc(OCCN2CCCC2)cc1)c1ccc(OCCN2CCCC2)cc1)c1ccc(Cl)cc1`, the GI50 in the assay on COLO 205 colon is 0.615 µM; in the assay with HS 578T breast, 0.659 µM; in the assay on SK-OV-3 ovarian it was 0.583 µM; in the assay on SW-620 colon, 0.554 µM; in the assay on IGROV1 ovarian, 0.582 µM; in the assay with OVCAR-8 ovarian, 0.692 µM. The GI50 in the assay with OVCAR-5 ovarian is 0.568 µM; with MDA-MB-231 breast, 0.589 µM; with U251 CNS it was 0.576 µM; in the assay with HCT-116 colon, 0.545 µM. The TGI in the assay on COLO 205 colon was found to be 1.25 µM; in the assay on HS 578T breast, 1.52 µM; in the assay on SK-OV-3 ovarian, 1.14 µM; in the assay on SW-620 colon it was 1.09 µM; in the assay with IGROV1 ovarian, 1.1 µM; in the assay on OVCAR-8 ovarian it was 1.57 µM. Besides, the TGI stood at 1.11 µM with OVCAR-5 ovarian, 1.11 µM in the assay with MDA-MB-231 breast, 1.14 µM in the assay on U251 CNS and 1.05 µM in the assay on HCT-116 colon.
`N/C(=N/S(=O)(=O)c1cc(C(=O)Nc2ccc(F)cc2)c(Cl)cc1SCc1ccccc1)Nc1ccccc1O`: the GI50 in the assay with COLO 205 colon is 4.1 µM; in the assay on HS 578T breast it was 1.72 µM; with SK-OV-3 ovarian it was 2.06 µM; in the assay on SW-620 colon it was 1.88 µM; in the assay with IGROV1 ovarian, 1.88 µM; with OVCAR-8 ovarian it was 1.92 µM. For the same compound, the GI50 in the assay with OVCAR-5 ovarian was 16.4 µM; with MDA-MB-231 breast it was 1.54 µM; with U251 CNS, 1.78 µM; in the assay on HCT-116 colon, 1.95 µM. The TGI in the assay on COLO 205 colon was greater than 100 µM; in the assay on HS 578T breast, 3.8 µM; in the assay on SK-OV-3 ovarian, 4.2 µM; in the assay with SW-620 colon it was 3.54 µM; in the assay with IGROV1 ovarian, 3.57 µM; with OVCAR-8 ovarian, 4.14 µM. Also, the TGI in the assay with OVCAR-5 ovarian turned out to be 31.3 µM; in the assay on MDA-MB-231 breast it was 3.1 µM; in the assay with U251 CNS, 3.22 µM; in the assay on HCT-116 colon, 4 µM.
On to `COc1ccc(C(Nc2ccccn2)c2cc(C(C)(C)C)cc(C(C)(C)C)c2O)cc1` (stereo not given), for which the TGI in the assay with COLO 205 colon is 50 µM; in the assay on HS 578T breast, greater than 100 µM; in the assay on SK-OV-3 ovarian, greater than 100 µM; with SW-620 colon, greater than 100 µM; with IGROV1 ovarian, greater than 100 µM; in the assay with OVCAR-8 ovarian it was greater than 100 µM. In addition, the TGI in the assay with OVCAR-5 ovarian, in the assay on MDA-MB-231 breast, in the assay on U251 CNS and with HCT-116 colon was greater than 100 µM throughout.
As for `COc1ccc2c(c1)C(=O)c1c-2n(CCCCl)c(=O)c2cc(N)ccc12`, the GI50 in the assay on COLO 205 colon is greater than 100 µM; in the assay on HS 578T breast, greater than 96.3 µM; in the assay with SK-OV-3 ovarian, greater than 100 µM; in the assay with SW-620 colon, greater than 68.1 µM; in the assay on IGROV1 ovarian it was greater than 100 µM; with OVCAR-8 ovarian it was greater than 100 µM. The GI50 in the assay on OVCAR-5 ovarian was greater than 61.7 µM; with MDA-MB-231 breast it was 25.6 µM; in the assay on U251 CNS, greater than 51.6 µM; in the assay with HCT-116 colon, greater than 57.9 µM. Further, the TGI in the assay with COLO 205 colon, with HS 578T breast, in the assay on SK-OV-3 ovarian, in the assay on SW-620 colon, in the assay on IGROV1 ovarian and in the assay on OVCAR-8 ovarian was greater than 100 µM each time. Further, the TGI with OVCAR-5 ovarian is greater than 100 µM; with MDA-MB-231 breast, greater than 95.7 µM; with U251 CNS, greater than 100 µM; in the assay on HCT-116 colon, greater than 100 µM.
Consider `CC(C)(C)OC(=O)N1Cc2cc3ccccc3nc2C1CO` (stereo not given), for which the GI50 with COLO 205 colon, with HS 578T breast, with SK-OV-3 ovarian, in the assay on SW-620 colon, in the assay on IGROV1 ovarian and in the assay with OVCAR-8 ovarian was greater than 100 µM each time. Besides, the GI50 with OVCAR-5 ovarian, in the assay with MDA-MB-231 breast, with U251 CNS and in the assay with HCT-116 colon was greater than 100 µM each time. In addition, the TGI in the assay on COLO 205 colon, in the assay with HS 578T breast, in the assay on SK-OV-3 ovarian, in the assay on SW-620 colon, with IGROV1 ovarian and in the assay with OVCAR-8 ovarian was greater than 100 µM throughout. Moreover, the TGI in the assay on OVCAR-5 ovarian, with MDA-MB-231 breast, with U251 CNS and in the assay with HCT-116 colon was greater than 100 µM each time.
As to `CC(=O)O[C@H]1CC[C@]2(C)C3C(=O)C[C@]4(C)[C@@H](C(C)CCC(=O)O)CC[C@@]4(C)[C@@H]3CC[C@H]2C1(C)C` (stereo not given in full), the GI50 was 20.9 µM with COLO 205 colon; 11.9 µM with HS 578T breast; 21.4 µM in the assay with SK-OV-3 ovarian; 19.4 µM in the assay with SW-620 colon; 34.7 µM with IGROV1 ovarian; 15.7 µM with OVCAR-8 ovarian. Moreover, the GI50 in the assay on OVCAR-5 ovarian was greater than 50 µM; with MDA-MB-231 breast it was greater than 50 µM; with U251 CNS, 7 µM; in the assay with HCT-116 colon, 9.37 µM. The TGI in the assay with COLO 205 colon was greater than 50 µM; with HS 578T breast, 39.5 µM; with SK-OV-3 ovarian it was greater than 50 µM; in the assay with SW-620 colon it was greater than 50 µM; in the assay on IGROV1 ovarian, greater than 50 µM; in the assay on OVCAR-8 ovarian, greater than 50 µM. Also, the TGI with OVCAR-5 ovarian was greater than 50 µM; in the assay on MDA-MB-231 breast, greater than 50 µM; with U251 CNS it was 20 µM; with HCT-116 colon it was 20.5 µM.
